Reference: article PMC6894869, “Fragment-based design of small molecule PCSK9 inhibitors using simulated annealing of chemical potential simulations” (PLoS ONE, 2019)

Molecular target: PCSK9 (Homo sapiens, UniProt Q8NBP7)
Assay: SPR competition assay against the EGFa domain of LDLR
Type: binding

## COc1ccc2nc(N)[nH]c2c1C#N [Fig 12A, cyano-benzimidazole derivative]
  IC50: 103 µM
